Measured values from patent US4956367A, “2-amino-4-morpholino-6-propyl-1,3,5-triazines” (U C B S.A., priority 1988, dated 1990).

Legend:
Toxicity (Irwin's test) = format: in vivo
Method: Progressive doses of the compound to be tested are administered intraperitoneally to groups of three mice until the lethal dose is reached (dose which causes the death of two animals out of three within 48 hours).

[1] = test system: effects of scopolamine on the band from 6.4 to 9.6 Hz in the EEG; experiment: Inhibition of the effects of scopolamine on the electroencephalogram (EEG); format: in vivo, male albino Sprague-Dawley rats; set-up: inhibition: dose or concentration left out as unconfirmed; conditions: Rattus norvegicus, ip; read-out: Inhibition (percentage of reduction in the increase in the intensity of the band from 6.4 to 9.6 Hz)
Method: Male albino Sprague-Dawley SPF rats (160 to 200 g) are used in this test. When the animals are 3 months old, 5 cortical electrodes are implanted permanently, aseptically and under a general anesthesia: one inert electrode, one left and one right frontal electrode, and one left and one right occipital electrode (P. ETEVENON, loc.cit.). The test is carried out when the animals are about 15 months old. In the meantime, the animals are kept in individual cages. They are given water and food ad libitum and are subjected to a regular daily cycle comprising a period of darkness between 6 o'clock in the evening and 6 o'clock in the morning. At the same time, the animals are progressively acclimatized to the cages of the sound-proof cabin which they will subsequently occupy for recording of the electroencephalograms, as well as to the experimental conditions, by intraperitoneal administration of placebo. The products are administered immediately before the EEG is recorded. The rats are divided into groups of 8 animals and 16 samples of the EEG spectra are recorded over 5 seconds (two EEG spectra per animal). The spectra obtained are then analyzed by computer (rapid Fourier transform), which enables the average of the 16 measurements performed to be determined for each group and the overall intensity of the EEG spectrum and the distribution of this intensity (in %) in the various frequency bands to be deduced for each animal. This operation (recording of the spectra) is repeated 9 times (total

SMILES	Lethal dose (death of two animals out of three within 48 hours) (Toxicity (Irwin's test); mice, intraperitoneal) [mg/kg]	inhibition [1] [%]	Lethal dose (death of two animals out of three within 48 hours) (Toxicity (Irwin's test); mouse, in vivo, ip) [mg/kg]
CCCc1nc(NC(C)=O)nc(N2CCOCC2)n1	905		
CCCc1nc(N2CCOCC2)nc(N(C)C(C)=O)n1	947		
CCCc1nc(NCCO)nc(N2CCOCC2)n1 [Compound 1, 2-[(4-morpholino-6-propyl-1,3,5-triazin-2-yl)amino]-ethanol]	802	52	
CCCc1nc(NO)nc(N2CCOCC2)n1 [Compound 2, 2-(hydroxyamino)-4-morpholino-6-propyl-1,3,5-triazine]	718		
CCCc1nc(NCCCO)nc(N2CCOCC2)n1 [Compound 3]	844		
CCCc1nc(NCCCCO)nc(N2CCOCC2)n1 [Compound 4]	886		
CCCc1nc(NCC(C)O)nc(N2CCOCC2)n1 (centres unmarked) [Compound 5]	563		
CCCc1nc(NCC(O)CC)nc(N2CCOCC2)n1 (centres unmarked) [Compound 6]	886		
CCCc1nc(NC(CC)CO)nc(N2CCOCC2)n1 (centres unmarked) [Compound 7]		50	886
CCCc1nc(NC(C)(C)CO)nc(N2CCOCC2)n1 [Compound 8]	886		
CCCc1nc(N(C)CCO)nc(N2CCOCC2)n1 [Compound 9]		53.3	844
CCCc1nc(NCCOC)nc(N2CCOCC2)n1 [Compound 10, 2-[(2-methoxyethyl)amino]-4-morpholino-6-propyl-1,3,5-triazine]	844		
CCCc1nc(NCC(O)CO)nc(N2CCOCC2)n1 (centres unmarked) [Compound 11]	892		
CCCc1nc(NC(CO)(CO)CO)nc(N2CCOCC2)n1 [Compound 12]	982		
CCCc1nc(NC(C)(CO)CO)nc(N2CCOCC2)n1 [Compound 13]	934		
CCCc1nc(N2CCOCC2)nc(N(CCO)Cc2ccccc2)n1 [Compound 14]	> 1073		
CCCc1nc(NC(CO)C(O)c2ccccc2)nc(N2CCOCC2)n1 (centres unmarked) [Compound 15]	1121		
CCCc1nc(NC[C@H](C)O)nc(N2CCOCC2)n1 [Compound 16, (S)-3-[(4-morpholino-6-propyl-1,3,5-triazin-2-yl)amino]-2-propanol]	844		
CCCc1nc(NC[C@@H](C)O)nc(N2CCOCC2)n1 [Compound 17]	844		
CCCc1nc(NCC2(O)CCCCC2)nc(N2CCOCC2)n1 [Compound 18]	1007		
CCCc1nc(N2CCOCC2)nc(N2CCCC2CO)n1 (centres unmarked) [Compound 19]	1031		
CCCc1nc(NN(C)C)nc(N2CCOCC2)n1 [Compound 20, 2-(2,2-dimethylhydrazino)-4-morpholino-6-propyl-1,3,5-triazine]	799	66.7	
CCCc1nc(NC(C)=O)nc(N2CCOCC2)n1 [Compound 21a, N-(4-Morpholino-6-propyl-1,3,5-triazin-2-yl)-acetamide]	996	100	

SMILES	Lethal dose (death of two animals out of three within 48 hours) (Toxicity (Irwin's test); mice, intraperitoneal) [mg/kg]	inhibition [1] [%]	Lethal dose (death of two animals out of three within 48 hours) (Toxicity (Irwin's test); mouse, in vivo, ip) [mg/kg]
CCCc1nc(NC(=O)c2ccccc2)nc(N2CCOCC2)n1.Cl [Compound 22, N-(4-morpholino-6-propyl-1,3,5-triazin-2-yl)-benzamide hydrochloride]	1091	66.7	
CCCc1nc(NC(=O)Cc2ccccc2)nc(N2CCOCC2)n1 [Compound 23]	> 1024		
CCCc1nc(NC(=O)C(C)C)nc(N2CCOCC2)n1 [Compound 24]	880		
CCCc1nc(N2CCOCC2)nc(N(C)C(C)=O)n1 [Compound 25a]		46.7	838
CCCc1nc(N2CCOCC2)nc(N(C)C(=O)C(C)C)n1 [Compound 26]		55.6	922
CCCc1nc(N2CCOCC2)nc(N(C)C(=O)c2ccccc2)n1.Cl [Compound 27, N-methyl-N-(4-morpholino-6-propyl-1,3,5-triazin-2-yl)-benzamide hydrochloride]	1133	93.8	
CCCc1nc(NC(=O)Oc2ccccc2)nc(N2CCOCC2)n1 [Compound 28, phenyl (4-morpholino-6-propyl-1,3,5-triazin-2-yl)carbamate]	> 1030		
CCCc1nc(NC(=O)c2ccc(Cl)cc2)nc(N2CCOCC2)n1 [Compound 29]	398		
CCCc1nc(N2CCOCC2)nc(N(C)C(=O)c2ccc(Cl)cc2)n1 [Compound 30]	1125		
CCCc1nc(NC(=O)c2ccc(OC)cc2)nc(N2CCOCC2)n1 [Compound 31]	511		
CCCc1nc(N2CCOCC2)nc(N(C)C(=O)c2ccc(OC)cc2)n1 [Compound 32]	1222		
CCCc1nc(NC(=O)c2ccc(C)cc2)nc(N2CCOCC2)n1 [Compound 33]	1132		
CCCc1nc(N2CCOCC2)nc(N(C)C(=O)c2ccc(C)cc2)n1 [Compound 34]	1174		
CCCc1nc(N2CCOCC2)nc(N(C)C(=O)c2ccc(OC)c(OC)c2)n1 [Compound 35]	401		
CCCc1nc(NC(=O)c2ccc(C)c(C)c2)nc(N2CCOCC2)n1 [Compound 36]	1174		
CCCc1nc(NCCOC(C)=O)nc(N2CCOCC2)n1 [Compound 37, 2-[[2-(acetoxy)ethyl]amino]-4-morpholino-6-propyl-1,3,5-triazine]	928	53.3	
CCCc1nc(NCCOC(=O)C(C)C)nc(N2CCOCC2)n1 [Compound 38]	> 1012		
CCCc1nc(NCCOC(=O)c2ccccc2)nc(N2CCOCC2)n1 [Compound 39]	> 1114		
CCCc1nc(NCCOC(=O)Cc2ccccc2)nc(N2CCOCC2)n1 [Compound 40]	1157		
CCCc1nc(NC(=O)N(C)C)nc(N2CCOCC2)n1 [Compound 41, N,N-Dimethyl-N'-(4-morpholino-6-propyl-1,3.5-triazin-2-yl)-urea]	294		
CCCc1nc(NCCOC(N)=O)nc(N2CCOCC2)n1 [Compound 42, 2-[[2-[(Aminocarbonyl)oxy]ethyl]amino]-4-morpholino-6-propyl-1,3,5-triazine]	> 931		
CCCc1nc(N2CCOCC2)nc(N(CCOC(C)=O)C(C)=O)n1 [Compound 43, N-[2-(Acetoxy)ethyl]-N-(4-morpholino-6-propyl-1,3,5-triazin-2-yl)-acetamide]	351	77.8	
